Among the data in PubChem BioAssay (NCI) are TGI values, retold here.

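Exposure lasted 48 hours, with cells grown in 96-well plates and compounds tested at five concentrations. TGI marks complete inhibition of growth.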

Assay in all cases: DTP human tumour cell line panel, 48 h
In test [1] the test system is A498 renal.
Test [2] concerns NCI-H460 lung.
The test system of test [3] is IGROV1 ovarian.
Test [4] concerns MCF7 breast.
Test [5] has as its system CCRF-CEM leukemia.
In test [6] the test system is OVCAR-4 ovarian.
Test [7] concerns UO-31 renal.
In test [8] the test system is SNB-75 CNS.
The subject of test [9] is SNB-19 CNS.
Test [10] has as its system UACC-257 melanoma.
For test [11], the system named is NCI-H226 lung.
For test [12], the system named is EKVX NSCLC.
Test [13] has as its system PC-3 prostate.
The subject of test [14] is M14 melanoma.
Test [15] relates to SK-MEL-5 melanoma.
Test [16] deals with SF-539 CNS.
The test system of test [17] is MALME-3M melanoma.
For test [18], the system named is NCI-H522 lung.
The subject of test [19] is MOLT-4 leukemia.

On to `C[Si](C)(N[Si](C)(C)OCCc1ccccc1)OCCc1ccccc1`, for which the concentration for total growth inhibition (TGI) in test [1], in test [2], in test [3], in [4], in test [5] and in test [6] was more than 100 µM in each case. Also, the TGI in test [7], in test [8], in test [9], in test [10], in test [11] and in test [12] was more than 100 µM throughout. In addition, the concentration for total growth inhibition (TGI) in test [13], in [14] and in [15] was more than 100 µM each time.
Regarding `COc1cc2oc(-c3ccc4c(c3)OCO4)c(OC)c(=O)c2c(OC)c1O`, the TGI in test [16], in [1], in [2], in [3], in [4] and in [17] was more than 100 µM throughout. Also, the TGI was more than 100 µM in [5]; more than 100 µM in test [6]; 59.2 µM in test [18]; more than 100 µM in test [19]; more than 100 µM in test [7]; 97.6 µM in test [8]. The TGI in test [9], in test [10], in test [11], in test [12], in [13] and in test [14] was more than 100 µM in each case. The compound also came in with a TGI in [15] of more than 100 µM.
For the compound `CCOC(=O)C1C(C)C2(C#N)C(=N)OC1(C)C2(C#N)C#N` (stereo not given), the TGI in [16], in test [1], in [3], in test [4], in test [17] and in test [18] was more than 100 µM in each case. Further, the TGI in [7], in [8], in test [9], in test [10], in test [11] and in [12] was more than 100 µM in each case. Further, the TGI was more than 100 µM in test [13], more than 100 µM in test [14] and 98.5 µM in test [15].
In the case of `O=C(CCCN1CCC2(CC1)CC(=O)N(N1CCOCC1)C2=O)c1ccc(F)cc1`, the TGI in test [16], in test [1], in test [2], in test [3], in test [4] and in test [17] was more than 100 µM in each case. In addition, the TGI in test [5], in test [18], in test [19], in [7], in test [8] and in test [9] was more than 100 µM in each case. For the same compound, the total growth inhibition concentration (TGI) in [10], in test [11], in test [13], in [14] and in test [15] was more than 100 µM in each case.
In the case of `COC(=O)[C@H](Cc1c[nH]c2ccccc12)NP(=O)(O)OC[C@H]1O[C@@H](n2cc(C)c(=O)[nH]c2=O)C[C@@H]1N=[N+]=[N-]`, the TGI in [2], in test [3], in test [4], in [17], in [5] and in [6] was more than 100 µM throughout. Moreover, the TGI in test [18], in test [19], in [7], in test [8], in test [9] and in test [10] was more than 100 µM throughout. Moreover, the TGI in test [11], in test [12], in [13], in [14] and in test [15] was more than 100 µM each time.
`COc1ccc2[nH]cc(C(=O)C(=O)NC34CC5CC(CC(C5)C3)C4)c2c1`: the TGI in test [16] was more than 81.1 µM; in test [1] it was more than 76.1 µM; in test [2], 91.3 µM; in [3], more than 100 µM; in test [4] it was more than 31.6 µM; in test [17], more than 100 µM. Moreover, the TGI is 29.9 µM in test [5]; more than 100 µM in [6]; more than 100 µM in test [18]; 16.6 µM in test [19]; more than 100 µM in [7]; more than 73 µM in test [8]. For the same compound, the TGI was more than 100 µM in [9]; more than 100 µM in [10]; more than 71.1 µM in [11]; more than 100 µM in test [12]; more than 100 µM in test [13]; more than 100 µM in test [14]. This compound registered a TGI in test [15] of more than 100 µM.
In the case of `CC1CC/C(=C\c2ccc(N(C)C)cc2)C2=C1C(c1ccc(N(C)C)cc1)NC(=S)N2` (stereo not given), the TGI in [16], in test [1], in [3], in test [4], in [17] and in test [5] was more than 100 µM in each case. For the same compound, the TGI in test [19], in test [7], in test [8], in [9], in test [10] and in test [11] was more than 100 µM each time. Besides, the concentration for total growth inhibition (TGI) in test [12], in test [13], in test [14] and in [15] was more than 100 µM each time.
As for `CC1(C)C2CC(O)C1CCC2=O` (stereo not given), the TGI in test [16], in test [1], in test [2], in test [4], in test [17] and in [5] was more than 100 µM throughout. For the same compound, the TGI in [6], in test [18], in test [19], in [7], in test [8] and in test [9] was more than 100 µM each time. Also, the TGI in test [10], in test [11], in [13], in test [14] and in [15] was more than 100 µM throughout.
As for `N#Cc1ccc(N2CCOCC2)cc1`, the TGI in test [16], in test [1], in [2], in [3], in test [4] and in test [5] was more than 100 µM throughout. The TGI in test [6], in test [18], in test [19], in [7], in [8] and in test [9] was more than 100 µM each time. Besides, the TGI in test [10], in [12], in test [13], in [14] and in [15] was more than 100 µM in each case.
Turning to `O=C(OCc1ccc([N+](=O)[O-])cc1)N1c2ccccc2[C@@]23O[C@]24CCC[C@H]3C#C/C=C\C#C[C@H]14`, the TGI in test [16], in test [1], in test [2], in test [3], in test [4] and in [17] was more than 100 µM throughout. The TGI in test [5], in test [6], in [18], in test [19], in test [7] and in test [9] was more than 100 µM each time. The TGI in [10], in [11], in test [12], in test [13], in [14] and in test [15] was more than 100 µM throughout.
Turning to `CC1=NNC(=O)C1C1CC(c2c[nH]c3ccccc23)=NN(C(N)=O)C1=O` (stereo not given), the TGI in test [16], in test [1], in test [2], in test [3], in test [17] and in test [5] was more than 100 µM each time. In addition, the concentration for total growth inhibition (TGI) in test [18], in test [19], in [7], in test [8], in test [9] and in test [10] was more than 100 µM throughout. The total growth inhibition concentration (TGI) in [11], in test [12], in [13], in test [14] and in test [15] was more than 100 µM each time.
For the compound `O=C1/C(=C/c2ccco2)N=C2Sc3c(nc[nH]c3=O)N12`, the concentration for total growth inhibition (TGI) in test [16], in test [1], in test [3], in test [4], in test [17] and in test [5] was more than 100 µM throughout. The TGI in [6], in test [18], in test [19], in test [7], in [8] and in test [9] was more than 100 µM throughout. Moreover, the concentration for total growth inhibition (TGI) in test [10], in [11], in test [12], in [13], in test [14] and in test [15] was more than 100 µM in each case.
For the compound `O=C(c1ccccc1)C(c1ccccc1)C1(O)C(=O)Nc2ccc([N+](=O)[O-])cc21` (stereo not given), the TGI in test [16], in [1], in test [2], in [3], in [17] and in [5] was more than 100 µM each time. The TGI in test [6], in [18], in test [19], in test [7], in test [8] and in test [9] was more than 100 µM throughout. The concentration for total growth inhibition (TGI) in test [11] is more than 100 µM; in test [12] it was more than 100 µM; in test [14], more than 100 µM; in [15], 57.7 µM.
Regarding `O=[N+]([O-])c1cc([N+](=O)[O-])c(/C=C/c2ccc(Cl)c(Cl)c2)cc1/C=C/c1ccc(Cl)c(Cl)c1`, the TGI in test [16] was 51.5 µM; in test [1] it was more than 100 µM; in [2], more than 100 µM; in [3], 66.8 µM; in test [17], 56.3 µM; in test [5], 53.4 µM. The total growth inhibition concentration (TGI) was more than 100 µM in test [6]; 56.4 µM in [18]; 62.4 µM in test [19]; 36.1 µM in [7]; more than 100 µM in test [8]; 66.5 µM in test [9]. The TGI in [10] is 51.3 µM; in [11], 66.3 µM; in test [12] it was more than 100 µM; in test [14] it was 52 µM; in test [15] it was 35.7 µM.
With `O=C(O)COc1ccc(C(=O)/C(SS/C(C(=O)c2ccc(OCC(=O)O)c(Cl)c2Cl)=C2\C=C(c3ccc(Cl)cc3)SS2)=C2/C=C(c3ccc(Cl)cc3)SS2)c(Cl)c1Cl`, the total growth inhibition concentration (TGI) is 17.9 µM in test [16]; more than 100 µM in test [1]; 35.6 µM in [2]; 76.2 µM in [3]; more than 100 µM in test [17]; 5.85 µM in test [5]. Moreover, the TGI in test [6] was 16.7 µM; in test [18] it was 9.54 µM; in test [19], 12.6 µM; in test [7], 16.9 µM; in [8] it was 31 µM; in test [9], more than 100 µM. Further, the total growth inhibition concentration (TGI) in [10] is more than 100 µM; in test [11], 18.7 µM; in [12], more than 100 µM; in test [14], 26.3 µM; in test [15], 48.1 µM.

A word on the TGI: it is the concentration giving total growth inhibition. Low readings indicate more potent growth arrest, high ones less potent growth arrest.
